The data set concerns CCRIS mutagenicity, Ames/micronucleus/aberration tests. Briefly: CCRIS mutagenicity studies.
The mark [1] stands for this setting: Test System: AMES SALMONELLA TYPHIMURIUM, Strain/Indicator: TA100, Metabolic Activation: NONE, Method: STANDARD PLATE.
Setting [2] is: Test System: AMES SALMONELLA TYPHIMURIUM, Strain/Indicator: TA100, Metabolic Activation: RAT, S-9, AROCLOR, Method: STANDARD PLATE.
Setting [3] is: Test System: AMES SALMONELLA TYPHIMURIUM, Strain/Indicator: TA98, Metabolic Activation: NONE, Method: PREINCUBATION
[4] abbreviates: Test System: AMES SALMONELLA TYPHIMURIUM, Strain/Indicator: TA100, Metabolic Activation: NONE, Method: PREINCUBATION

The structures appear in SMILES notation. Calls of active or inactive are those of the source. No rule for the calls is given here.

Turning to `CCCCOc1cc(C)ccc1C(=O)NOC(C)=O`, the mutagenic call by setting is: under setting [1], “active; positive”; under setting [2], “active; positive”.

Take `CC(C)C(N)C(=O)O` (centres undefined): the mutagenic call (Test System: AMES SALMONELLA TYPHIMURIUM, Strain/Indicator: TA98, Metabolic Activation: RAT LIVER S-9, CHLOROPHENE, Method: STANDARD PLATE (COMPOUND HEATED AT 250 DEGREES CELSIUS FOR 20 MIN)) is “inactive; negative”.

On to `CC(=O)ON(OCc1ccc([N+](=O)[O-])cc1)C(=O)c1ccccc1`, for which the mutagenic call under setting [1] was “active; positive” and the mutagenic call under setting [2] was “active; positive”.

With `c1cc2cnncc2cn1`, the mutagenic call is, setting by setting: under setting [3], “inactive; negative”; (Test System: AMES SALMONELLA TYPHIMURIUM, Strain/Indicator: TA98, Metabolic Activation: RAT, LIVER, S-9, PCB, Method: PREINCUBATION) “inactive; negative”; under setting [4], “inactive; negative”; (Test System: AMES SALMONELLA TYPHIMURIUM, Strain/Indicator: TA100, Metabolic Activation: RAT, LIVER, S-9, PCB, Method: PREINCUBATION) “inactive; negative”.

With `C=CCc1ccc(O)cc1`, the mutagenic call reads like this: (Test System: AMES SALMONELLA TYPHIMURIUM, Strain/Indicator: TA98, Metabolic Activation: HAMSTER, LIVER, S-9, AROCLOR 1254, Method: STANDARD PLATE) “inactive; negative”; (Test System: AMES SALMONELLA TYPHIMURIUM, Strain/Indicator: TA98, Metabolic Activation: NONE, Method: STANDARD PLATE) “inactive; negative”; (Test System: AMES SALMONELLA TYPHIMURIUM, Strain/Indicator: TA98, Metabolic Activation: RAT, LIVER, S-9, AROCLOR 1254, Method: STANDARD PLATE) “inactive; negative”; (Test System: AMES SALMONELLA TYPHIMURIUM, Strain/Indicator: TA100, Metabolic Activation: HAMSTER, LIVER, S-9, AROCLOR 1254, Method: STANDARD PLATE) “inactive; negative”; under setting [1], “inactive; negative”; (Test System: AMES SALMONELLA TYPHIMURIUM, Strain/Indicator: TA100, Metabolic Activation: RAT, LIVER, S-9, AROCLOR 1254, Method: STANDARD PLATE) “inactive; negative”. Moreover, the mutagenic call reads like this: (Test System: AMES SALMONELLA TYPHIMURIUM, Strain/Indicator: TA1535, Metabolic Activation: HAMSTER, LIVER, S-9, AROCLOR 1254, Method: STANDARD PLATE) “inactive; negative”; (Test System: AMES SALMONELLA TYPHIMURIUM, Strain/Indicator: TA1535, Metabolic Activation: NONE, Method: STANDARD PLATE) “inactive; negative”; (Test System: AMES SALMONELLA TYPHIMURIUM, Strain/Indicator: TA1535, Metabolic Activation: RAT, LIVER, S-9, AROCLOR 1254, Method: STANDARD PLATE) “inactive; negative”; (Test System: AMES SALMONELLA TYPHIMURIUM, Strain/Indicator: TA1537, Metabolic Activation: HAMSTER, LIVER, S-9, AROCLOR 1254, Method: STANDARD PLATE) “inactive; negative”; (Test System: AMES SALMONELLA TYPHIMURIUM, Strain/Indicator: TA1537, Metabolic Activation: NONE, Method: STANDARD PLATE) “inactive; negative”; (Test System: AMES SALMONELLA TYPHIMURIUM, Strain/Indicator: TA1537, Metabolic Activation: RAT, LIVER, S-9, AROCLOR 1254, Method: STANDARD PLATE) “inactive; negative”. Besides, the mutagenic call is, setting by setting: (Test System: AMES SALMONELLA TYPHIMURIUM, Strain/Indicator: TA1538, Metabolic Activation: HAMSTER, LIVER, S-9, AROCLOR 1254, Method: STANDARD PLATE) “inactive; negative”; (Test System: AMES SALMONELLA TYPHIMURIUM, Strain/Indicator: TA1538, Metabolic Activation: NONE, Method: STANDARD PLATE) “inactive; negative”; (Test System: AMES SALMONELLA TYPHIMURIUM, Strain/Indicator: TA1538, Metabolic Activation: RAT, LIVER, S-9, AROCLOR 1254, Method: STANDARD PLATE) “inactive; negative”; (Test System: MOUSE LYMPHOMA, Strain/Indicator: L5178Y (TK+/TK-), Metabolic Activation: NONE, Method: SUSPENSION/PLATE) “inactive; negative. reevaluation of results: negative”; (Test System: MOUSE LYMPHOMA, Strain/Indicator: L5178Y (TK+/TK-), Metabolic Activation: RAT, LIVER, S-9, AROCLOR 1254, Method: SUSPENSION/PLATE) “inactive; negative. reevaluation of results: negative”.

`CS(=O)CCCC/C(=N\OS(=O)(=O)O)S[C@@H]1O[C@H](CO)[C@@H](O)[C@H](O)[C@H]1O` (some centres undefined): the mutagenic call (End Point: IN VITRO MICRONUCLEUS, Test System: HUMAN T-LYMPHOCYTES, Metabolic Activation: NONE) is “inactive; negative”.

As for `CCC(C)C(C)CO` (centres undefined), the mutagenic call (Test System: AMES SALMONELLA TYPHIMURIUM, Strain/Indicator: TA97, Metabolic Activation: HAMSTER, LIVER, S-9, AROCLOR 1254 (10 OR 30%), Method: PREINCUBATION) was “inactive; negative”; the mutagenic call (Test System: AMES SALMONELLA TYPHIMURIUM, Strain/Indicator: TA97, Metabolic Activation: NONE, Method: PREINCUBATION) was “inactive; negative”; the mutagenic call (Test System: AMES SALMONELLA TYPHIMURIUM, Strain/Indicator: TA97, Metabolic Activation: RAT, LIVER, S-9, AROCLOR 1254 (10%), Method: PREINCUBATION) was “inactive; negative”; the mutagenic call (Test System: AMES SALMONELLA TYPHIMURIUM, Strain/Indicator: TA97, Metabolic Activation: RAT, LIVER, S-9, AROCLOR 1254 (30%), Method: PREINCUBATION) is “inactive; negative”; the mutagenic call (Test System: AMES SALMONELLA TYPHIMURIUM, Strain/Indicator: TA98, Metabolic Activation: HAMSTER, LIVER, S-9, AROCLOR 1254 (10 OR 30%), Method: PREINCUBATION) is “inactive; negative”; the mutagenic call under setting [3] was “inactive; negative”. Also, the mutagenic call reads like this: (Test System: AMES SALMONELLA TYPHIMURIUM, Strain/Indicator: TA98, Metabolic Activation: RAT, LIVER, S-9, AROCLOR 1254 (10%), Method: PREINCUBATION) “inactive; negative”; (Test System: AMES SALMONELLA TYPHIMURIUM, Strain/Indicator: TA98, Metabolic Activation: RAT, LIVER, S-9, AROCLOR 1254 (30%), Method: PREINCUBATION) “inactive; negative”; (Test System: AMES SALMONELLA TYPHIMURIUM, Strain/Indicator: TA100, Metabolic Activation: HAMSTER, LIVER, S-9, AROCLOR 1254 (10 OR 30%), Method: PREINCUBATION) “inactive; negative”; under setting [4], “inactive; negative”; (Test System: AMES SALMONELLA TYPHIMURIUM, Strain/Indicator: TA100, Metabolic Activation: RAT, LIVER, S-9, AROCLOR 1254 (10%), Method: PREINCUBATION) “inactive; negative”; (Test System: AMES SALMONELLA TYPHIMURIUM, Strain/Indicator: TA100, Metabolic Activation: RAT, LIVER, S-9, AROCLOR 1254 (30%), Method: PREINCUBATION) “inactive; negative”. Besides, the mutagenic call reads like this: (Test System: AMES SALMONELLA TYPHIMURIUM, Strain/Indicator: TA1535, Metabolic Activation: HAMSTER, LIVER, S-9, AROCLOR 1254 (10 OR 30%), Method: PREINCUBATION) “inactive; negative”; (Test System: AMES SALMONELLA TYPHIMURIUM, Strain/Indicator: TA1535, Metabolic Activation: NONE, Method: PREINCUBATION) “inactive; negative”; (Test System: AMES SALMONELLA TYPHIMURIUM, Strain/Indicator: TA1535, Metabolic Activation: RAT, LIVER, S-9, AROCLOR 1254 (10%), Method: PREINCUBATION) “inactive; negative”; (Test System: AMES SALMONELLA TYPHIMURIUM, Strain/Indicator: TA1535, Metabolic Activation: RAT, LIVER, S-9, AROCLOR 1254 (30%), Method: PREINCUBATION) “inactive; negative”.

For the compound `O=[N+]([O-])c1cccc2c(Cl)nsc12`, the mutagenic call under setting [1] is “active; positive”.

In the case of `Cn1nnc2c(C(N)=O)ncn2c1=O`, the mutagenic call by setting is: (End Point: IN VITRO CHROMOSOMAL ABERRATIONS, Test System: HUMAN HCT116/3-6 CELLS, Metabolic Activation: NONE) “active; positive”; (End Point: IN VITRO CHROMOSOMAL ABERRATIONS, Test System: HUMAN HCT116 CELLS, Metabolic Activation: NONE) “active; positive”; (End Point: IN VITRO CHROMOSOMAL ABERRATIONS, Test System: HUMAN MT1 CELLS, Metabolic Activation: NONE) “active; positive”; (End Point: IN VITRO CHROMOSOMAL ABERRATIONS, Test System: HUMAN TK6 CELLS, Metabolic Activation: NONE) “active; positive”.

Turning to `CN(N=O)C(=O)Nc1ccc(Br)cc1`, the mutagenic call (End Point: IN VITRO CHROMOSOMAL ABERRATIONS, Test System: CHINESE HAMSTER V79-E CELLS, Metabolic Activation: NONE) was “active; weakly positive”.

The values above are taken from PubChem BioAssay AID1259407 (Chemical Carcinogenesis Research Information System (CCRIS), 2018).
